This note sets out measurements from patent US9540359B2, “Dihydrooxazine or oxazepine derivatives having BACE1 inhibitory activity” (Shionogi & Co., Ltd., priority 2012, dated 2017).

pIC50: −log10 of the molar value. Where two headings read alike, the source gives them in different places. Where only a bound is given, the exact number is not on record here.

One assay addresses Recombinant human BACE1 (Homo sapiens (Human), UniProt P56817). The assay can be described thus: Assay of BACE1 inhibiting activity (HTRF, substrate peptide cleavage). It is filed as biochemical. The following applies: 30° C., 3.5 hours, pH 5.0. As for the experimental part: 48.5 μL of substrate peptide solution (Biotin-[…]-Eu: X=ε-amino-n-capronic acid, Eu=Europium cryptate) was added to each well of 96-hole half-area plate (a black plate: Costar), and after addition of 0.5 μl of the compound of the present invention (DMSO solution) and 1 μl of Recombinant human BACE1 (R&D Systems), the reaction mixture was incubated at 30° C. for 3.5 hours. […] The final concentrations of the substrate peptide and Recombinant human BACE1 were adjusted to 18 nmol/L and 7.4 nmol/L, respectively, and the reaction was performed in sodium acetate buffer (50 mmol/L sodium acetate, pH 5.0, 0.008% Triton X-100). After the incubation for reaction, 50 μl of 8.0 μg/ml Streptavidin-XL665 (CIS bio international) dissolved in phosphate buffer (150 mmol/L K2HPO4-KH2PO4, pH 7.0, 0.008% Triton X-100, 0.8 mol/L KF) was added to each well and left stand at 30° C. for 45 minutes. After then, fluorescence intensity was measured (excitation wavelength: 320 nm, measuring wavelength: 620 nm and 665 nm) using Wallac 1420 multilabel counter (Perkin Elmer life sciences). Enzymatic activity was determined from counting ratio of each wavelength (10,000× Count 665/Count 620) and 50% inhibitory concentration against the enzymatic activity (IC50) was calculated.

In assay [1] the test system is β-Amyloid (Aβ) production in neuroblastoma SH-SY5Y cells (SH/APPwt). The experiment in a line: Measurement of β-amyloid (Aβ) production inhibitory effect in cell. Type of assay: cell-based. The following applies: Homo sapiens, amount needed to inhibit Aβ production by 50%, Amyloid β1-40 in culture supernatant, 24 hours. As for the experimental part:
Neuroblastoma SH-SY5Y cells (SH/APPwt) with human wild-type β-APP excessively expressed therein were prepared at 8×10^5 cells/mL, and 150 μl portions thereof were inoculated into each well of a 96-well culture plate (Falcon). The cells were cultured for 2 hours at 37° C. in a 5% gaseous carbon dioxide incubator. Then, a solution which have been preliminarily prepared by adding and suspending the compound of the present invention (DMSO (dimethyl sulfoxide) solution) so as to be 2 μl/50 μl medium was added to the cell sap. Namely, the final DMSO concentration was 1%, and the amount of the cell culture was 200 μl. After the incubation was performed for 24 hours from the addition of the test compound, 100 μl of the culture supernatant was collected from each fraction. The amount of the Aβ in each fraction was measured. The Aβ amount was measured as follows. 10 μl of a homogeneous time resolved fluorescence (HTRF) measurement reagent (Amyloid β1-40 peptide; CIS bio international) and 10 μl of the culture supernatant were put into a 384-well half area microplate (black microplate, Costar) and mixed with each other, and then left standing overnight at 4° C. while the light was shielded. Then, the fluorescence intensity (excitation wavelength: 337 nm, measurement wavelength: 620 nm and 665 nm) was measured with a micro plate reader (Artemis K-101; FURUNO […]). […]

Setting [2] is: 50% inhibitory concentration against enzymatic activity, read-out: IC50 value.
The mark [3] stands for this setting: bound stated for a list of compounds, read-out: IC50 values.

Chain of Recombinant human BACE1 (P56817 46-501): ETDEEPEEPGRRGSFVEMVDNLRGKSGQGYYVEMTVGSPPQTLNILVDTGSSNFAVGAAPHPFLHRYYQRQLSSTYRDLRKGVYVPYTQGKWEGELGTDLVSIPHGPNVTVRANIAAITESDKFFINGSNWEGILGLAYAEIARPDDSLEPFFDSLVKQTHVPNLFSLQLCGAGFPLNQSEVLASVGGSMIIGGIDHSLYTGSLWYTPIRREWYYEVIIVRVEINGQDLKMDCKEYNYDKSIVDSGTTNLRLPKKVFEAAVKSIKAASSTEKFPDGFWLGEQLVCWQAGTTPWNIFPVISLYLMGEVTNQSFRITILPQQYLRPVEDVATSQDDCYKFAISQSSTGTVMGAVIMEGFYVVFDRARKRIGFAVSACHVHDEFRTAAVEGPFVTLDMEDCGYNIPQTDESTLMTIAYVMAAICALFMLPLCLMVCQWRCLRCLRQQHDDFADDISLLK

In the case of `C#C[C@]1(c2cc(NC(=O)c3ccc(C#N)cn3)ccc2F)N=C(N)O[C@@H]2C[C@@H]21` [Compound I-21], the negative logarithm of the IC50 (pIC50) at Recombinant human BACE1 (setting [2]) is 7.18.
Turning to `Cc1cc(C#N)cnc1C(=O)Nc1ccc(F)c([C@]2(C(F)F)CCOC(N)=N2)c1` [Compound I-4], the negative-log IC50 (pIC50) at Recombinant human BACE1 (setting [2]) is 7.04.
As for `N#Cc1ccc(C(=O)Nc2ccc(F)c([C@]3(C(F)(F)F)CCOC(N)=N3)c2)nc1` [Compound I-38], the negative logarithm of the IC50 (pIC50) in assay [1] was 6.29.
In the case of `N#Cc1ccc(C(=O)Nc2ccc(F)c([C@]34CCO[C@H]3[C@@H](CF)OC(N)=N4)c2)nc1` [Compound I-110], at Recombinant human BACE1 (setting [3]), the pIC50 is not below 6.00.
On the same count and under the same terms, for `NC1=N[C@@](c2cc(NC(=O)c3cnc(OCF)cn3)ccc2F)(C(F)F)CCCO1` [Compound I-47] the value was not below 6.00.
For `CC1(C)C[C@@](C)(c2cc(NC(=O)c3ccc(C#N)cn3)ccc2F)N=C(N)O1` [Compound I-1], on Recombinant human BACE1 (setting [2]), the pIC50 was 7.03.
For `CC12OC(N)=N[C@](CF)(c3cc(NC(=O)c4ccc(C#N)cn4)ccc3F)C1O2` (some centres unmarked) [Compound I-2], the negative-log IC50 (pIC50) on Recombinant human BACE1 (setting [2]) was 7.11.
As to `C[C@H]1OC(N)=N[C@](CF)(c2cc(NC(=O)c3ccc(C#N)cn3)ccc2F)[C@H]1CF` [Compound I-100], the pIC50 on Recombinant human BACE1 (setting [2]) was 6.95.
Take `N#Cc1ccc(C(=O)Nc2ccc(F)c([C@]34CCO[C@H]3COC(N)=N4)c2)nc1` [Compound I-108]: the negative logarithm of the IC50 (pIC50) on Recombinant human BACE1 (setting [3]) is not below 6.00.
`C#C[C@]1(c2cc(NC(=O)c3coc(C(F)F)n3)ccc2F)N=C(N)O[C@@H]2COC[C@@H]21` [Compound I-73]: the negative logarithm of the IC50 (pIC50) at Recombinant human BACE1 (setting [3]) is not below 6.00.
Consider `COC[C@@H]1C[C@@](CF)(c2cc(NC(=O)c3ccc(C#N)cn3)ccc2F)N=C(N)O1` [Compound I-37], for which the negative-log IC50 (pIC50) at Recombinant human BACE1 (setting [3]) is not below 6.00.
With `C#C[C@]1(c2cc(NC(=O)c3cnc(OCF)cn3)ccc2F)N=C(N)O[C@@H]2COC[C@@H]21` [Compound I-72], the negative-log IC50 (pIC50) at Recombinant human BACE1 (setting [2]) is 7.87.
Consider `CO[C@H]1[C@@H](C(F)F)OC(N)=N[C@]1(C)c1cc(NC(=O)c2ccc(C#N)cn2)ccc1F` [Compound I-116], for which, at Recombinant human BACE1 (setting [3]), the pIC50 was not below 6.00.
Take `C[C@]1(c2cc(NC(=O)c3ccc(C#N)cn3)ccc2F)N=C(N)OC2(COC2)[C@@H]1F` [Compound I-95]: the negative-log IC50 (pIC50) at Recombinant human BACE1 (setting [2]) was 7.68.
Take `NC1=N[C@@]2(c3cc(NC(=O)c4cnc(OCF)cn4)ccc3F)CCO[C@H]2[C@@H](CF)O1` [Compound I-111]: on Recombinant human BACE1 (setting [3]), the pIC50 is not below 6.00.
As for `CO[C@H]1[C@@H](C(F)F)OC(N)=N[C@]1(C)c1cc(NC(=O)c2ccc(F)cn2)ccc1F` [Compound I-119], the pIC50 on Recombinant human BACE1 (setting [3]) was not below 6.00.
As for `C[C@]1(c2cc(NC(=O)c3coc(CF)n3)ccc2F)N=C(N)O[C@H](CF)[C@@H]1F` [Compound I-85], the pIC50 at Recombinant human BACE1 (setting [3]) was not below 6.00.
Consider `C[C@@]1(c2cc(NC(=O)c3ccc(C#N)cn3)ccc2F)CC2(COC2)OC(N)=N1` [Compound I-56], for which, on Recombinant human BACE1 (setting [2]), the negative-log IC50 (pIC50) is 7.60.
Same read-out and setting: for `C[C@@]1(c2cc(NC(=O)c3ccc(C#N)cn3)ccc2F)CCCOC(N)=N1` [Compound I-13] the value was 6.82; for `C[C@]1(c2cc(NC(=O)c3coc(C(F)F)n3)ccc2F)N=C(N)O[C@H](CF)[C@@H]1F` [Compound I-86], 7.48.
The same measure, in the same setting: for `C#C[C@@]1(c2cc(NC(=O)c3ccc(C#N)cn3)ccc2F)CCOC(N)=N1` [Compound I-14] the value was 7.01.
For `Cc1cc(C#N)cnc1C(=O)Nc1ccc(F)c([C@@]2(C)N=C(N)O[C@H](CF)[C@@H]2F)c1` [Compound I-26], the negative-log IC50 (pIC50) on Recombinant human BACE1 (setting [3]) was not below 6.00.
Take `CO[C@H]1[C@@H](C(F)F)OC(N)=N[C@]1(C)c1cc(NC(=O)c2cnc(OCF)cn2)ccc1F` [Compound I-118]: on Recombinant human BACE1 (setting [3]), the negative-log IC50 (pIC50) was not below 6.00.
